Reference: patent US4198506A, “2-Carboxyalkyl-2,3-dihydro-6-mercapto-s-triazolo[4,3-b]-pyridazin-3-ones” (Bristol-Myers Company, priority 1979, dated 1980)
Values after ≈ are worked out from the molar mass of the structure shown. Where two headings read alike, the source gives them in different places.

Tests used:
[1] = test system: B. anthracis; test: microbe, parasite or virus in culture; type: cell-based; details: Bacillus anthracis
[2] = test system: Proteus (indole-); test: In vitro activity (geometric mean MIC, serial dilution); type: cell-based; details: 6 strains; Mueller-Hinton agar, inoculum 10^4 dilution; MIC cutoff 200 mcg./ml.; read-out: Geometric Mean MIC
[3] = test system: Serr. marcescens; test: In vitro antibacterial activity (Steers' agar dilution MIC); type: cell-based; details: Serratia marcescens
[4] = test system: Pr. vulgaris; test: as above; type: cell-based; details: Proteus vulgaris
[5] = test system: E. coli (Penicillinase +); test: In vitro activity (geometric mean MIC, serial dilution); type: cell-based; details: Escherichia coli; 7 strains; Mueller-Hinton agar, inoculum 10^4 dilution; MIC cutoff 200 mcg./ml.; read-out: Geometric Mean MIC
[6] = test system: Proteus (indole +); test: as above; type: cell-based; details: read-out: Geometric Mean MIC
[7] = test system: Shig. dysenteriae; test: In vitro antibacterial activity (Steers' agar dilution MIC); type: cell-based; details: Shigella dysenteriae
[8] = test system: Ps. aeruginosa; test: as above; type: cell-based
[9] = test system: S. pyogenes; test: In vitro activity (geometric mean MIC, serial dilution); type: cell-based; details: Streptococcus pyogenes; 10 strains; Mueller-Hinton agar, inoculum 10^4 dilution; MIC cutoff 200 mcg./ml.
[10] = test system: Klebsiella sp.; test: as above; type: cell-based; details: 12 strains, Mueller-Hinton agar, inoculum 10^4 dilution, MIC cutoff 200 mcg./ml., read-out: Geometric Mean MIC
[11] = test system: St. faecalis; test: In vitro antibacterial activity (Steers' agar dilution MIC); type: cell-based; details: Enterococcus faecalis
[12] = test system: E. coli (sensitive); test: In vitro activity (geometric mean MIC, serial dilution); type: cell-based; details: Escherichia coli, read-out: Geometric Mean MIC
[13] = test system: Proteus (indole +, cephalosporinase +); test: as above; type: cell-based; details: 5 strains; Mueller-Hinton agar, inoculum 10^4 dilution; MIC cutoff 200 mcg./ml.; read-out: Geometric Mean MIC
[14] = test system: S. aureus (sensitive); test: as above; type: cell-based; details: Staphylococcus aureus, read-out: Geometric Mean MIC
[15] = test system: E. coli; test: In vitro antibacterial activity (Steers' agar dilution MIC); type: cell-based; details: Escherichia coli
Text: (§1) In vitro Antibacterial Activity of BB-S493 Compared with
(§2) BB-S479 and Cefamandole (Determined by Steers' Agar Dilu-
(§3) tion Method on Mueller-Hinton Agar Plate)
(§4) In vitro antibacterial activity of BB-S 525 compared with
(§5) BB-S 479 and cefamandole (determined by Steers' agar dilution
(§6) method on Mueller-Hinton agar plate)

[16] = test system: S. aureus; test: as above; type: cell-based; details: Staphylococcus aureus
Text: as §1, §2, §3, §4, §5, §6

[17] = test system: Shig. flexneri; test: as above; type: cell-based
Text: as §1, §2, §3, §4, §5, §6

[18] = test system: Shig. sonnei; test: as above; type: cell-based; details: Shigella sonnei
Text: as §1, §2, §3, §4, §5, §6

[19] = test system: Kl. pneumoniae; test: as above; type: cell-based; details: Klebsiella pneumoniae
Text: as §1, §2, §3, §4, §5, §6

[20] = test system: Sal. typhosa; test: as above; type: cell-based
Text: as §1, §2, §3, §4, §5, §6

[21] = test system: Sal. enteritidis; test: as above; type: cell-based; details: Salmonella enterica
[22] = test system: Enterobacter (sensitive); test: In vitro activity (geometric mean MIC, serial dilution); type: cell-based; details: 3 strains, Mueller-Hinton agar, inoculum 10^4 dilution, MIC cutoff 200 mcg./ml., read-out: Geometric Mean MIC
[23] = test system: S. marcescens; test: as above; type: cell-based; details: Serratia marcescens; 16 strains; Mueller-Hinton agar, inoculum 10^4 dilution; MIC cutoff 200 mcg./ml.; read-out: Geometric Mean MIC
[24] = test system: D. pneumoniae; test: as above; type: cell-based; details: Streptococcus pneumoniae; 9 strains; Mueller-Hinton agar, inoculum 10^4 dilution; MIC cutoff 200 mcg./ml.
[25] = test system: Miscellaneous (Salmonella, Shigella, Citrobacter); test: microbe, parasite or virus in culture; details: read-out: Geometric Mean MIC
[26] = test system: Providencia sp.; test: In vitro activity (geometric mean MIC, serial dilution); type: cell-based; details: read-out: Geometric Mean MIC

Compound: Cn1nnnc1SCC1=C(C(=O)O)N2C(=O)[C@@H](NC(=O)[C@H](O)c3ccccc3)[C@H]2SC1 [Cefamandole, reference compound]
- MIC ([1]; table 2 (BB-S493), B. anthracis A9504): 0.2 µg/mL (≈ 0.432 µM)
- MIC ([1]; table 4 (BB-S 525), B. anthracis): 0.05 µg/mL (≈ 0.108 µM)
- MIC [2]: 0.6 µg/mL (≈ 1.3 µM)
- MIC ([3]; table 4 (BB-S 525), Serr. marcescens): 50 µg/mL (≈ 108 µM)
- MIC ([3]; table 2 (BB-S493), Serr. marcescens A20019): 50 µg/mL (≈ 108 µM)
- MIC [4]: 50 µg/mL (≈ 108 µM)
- MIC ([4]; table 2 (BB-S493), Pr. vulgaris A9436, read-out: MIC): 0.2 µg/mL (≈ 0.432 µM)
- MIC ([4]; table 2 (BB-S493), Pr. vulgaris A9699, read-out: MIC): 25 µg/mL (≈ 54.1 µM)
- MIC ([4]; table 4 (BB-S 525), Pr. vulgaris, 1st line, read-out: MIC): 0.2 µg/mL (≈ 0.432 µM)
- MIC [5]: 5.7 µg/mL (≈ 12.3 µM)
- MIC [6]: 0.5 µg/mL (≈ 1.08 µM)
- MIC ([7]; table 2 (BB-S493), Shig dysenteriae): 0.2 µg/mL (≈ 0.432 µM)
- MIC ([7]; table 4 (BB-S 525), Shig. dysenteriae): 0.1 µg/mL (≈ 0.216 µM)
- MIC ([8]; Pseudomonas aeruginosa, table 2 (BB-S493), Ps. aeruginosa A9843, read-out: MIC): > 100 µg/mL
- MIC ([8]; table 2 (BB-S493), Ps. aerugionsa A9930): > 100 µg/mL
- MIC ([8]; table 4 (BB-S 525), Ps. aeruginosa, 1st line): > 100 µg/mL
- MIC ([8]; table 4 (BB-S 525), Ps. aeruginosa, 2nd line): > 100 µg/mL
- MIC [9]: 0.04 µg/mL (≈ 0.0865 µM)
- MIC [10]: 2.4 µg/mL (≈ 5.19 µM)
- MIC [11]: 50 µg/mL (≈ 108 µM)
- MIC ([11]; table 4 (BB-S 525), St. faecalis, read-out: MIC): 100 µg/mL (≈ 216 µM)
- MIC [12]: 0.3 µg/mL (≈ 0.649 µM)
- MIC [13]: 3.6 µg/mL (≈ 7.78 µM)
- MIC [14]: 0.1 µg/mL (≈ 0.216 µM)
- MIC ([15]; ATCC8739, table 2 (BB-S493), E. coli ATCC 8739, read-out: MIC): 0.05 µg/mL (≈ 0.108 µM)
- MIC ([15]; ATCC8739, table 4 (BB-S 525), E. coli ATCC 8739): 6.3 µg/mL (≈ 13.6 µM)
- MIC ([15]; table 2 (BB-S493), E. coli A9660, read-out: MIC): 0.1 µg/mL (≈ 0.216 µM)
- MIC ([15]; table 2 (BB-S493), E. coli A15147, read-out: MIC): 3.1 µg/mL (≈ 6.7 µM)
- MIC ([15]; table 2 (BB-S493), E. coli A15810, read-out: MIC): 0.2 µg/mL (≈ 0.432 µM)
- MIC ([15]; table 2 (BB-S493), E. coli BX-1373, read-out: MIC): 0.4 µg/mL (≈ 0.865 µM)
- MIC ([15]; table 2 (BB-S493), E. coli Juhl A15119, read-out: MIC): 0.4 µg/mL (≈ 0.865 µM)
- MIC ([15]; table 2 (BB-S493), E. coli NIHJ, read-out: MIC): 0.025 µg/mL (≈ 0.0541 µM)
- MIC ([15]; table 4 (BB-S 525), E. coli BX-1373, read-out: MIC): 0.2 µg/mL (≈ 0.432 µM)
- MIC ([15]; table 4 (BB-S 525), E. coli Juhl, read-out: MIC): 0.4 µg/mL (≈ 0.865 µM)
- MIC ([15]; table 4 (BB-S 525), E. coli NIHJ, read-out: MIC): 0.1 µg/mL (≈ 0.216 µM)
- MIC ([15]; table 4 (BB-S 525), E. coli, strain not given, 1st line, read-out: MIC): 0.1 µg/mL (≈ 0.216 µM)
- MIC ([15]; table 4 (BB-S 525), E. coli, strain not given, 2nd line, read-out: MIC): 0.05 µg/mL (≈ 0.108 µM)
- MIC ([15]; table 4 (BB-S 525), E. coli, strain not given, 3rd line, read-out: MIC): 1.6 µg/mL (≈ 3.46 µM)
- MIC ([16]; table 2 (BB-S493), S. aureus A9497): 0.05 µg/mL (≈ 0.108 µM)
- MIC ([16]; table 2 (BB-S493), S. aureus BX-1633 A9606): 0.2 µg/mL (≈ 0.432 µM)
- MIC ([16]; table 2 (BB-S493), S. aureus Smith A9537): 0.1 µg/mL (≈ 0.216 µM)
- MIC ([16]; table 4 (BB-S 525), S. aureus (strain not given)): 0.05 µg/mL (≈ 0.108 µM)
- MIC ([16]; table 4 (BB-S 525), S. aureus BX-1633): 0.2 µg/mL (≈ 0.432 µM)
- MIC ([16]; table 4 (BB-S 525), S. aureus Smith): 0.2 µg/mL (≈ 0.432 µM)
- MIC ([17]; Shigella flexneri, table 2 (BB-S493), Shig. flexneri A9684, read-out: MIC): 3.1 µg/mL (≈ 6.7 µM)
- MIC ([17]; table 4 (BB-S 525), Shig. flexneri): 3.1 µg/mL (≈ 6.7 µM)
- MIC ([18]; table 2 (BB-S493), Shig. sonnei A9516): 0.05 µg/mL (≈ 0.108 µM)
- MIC ([18]; table 4 (BB-S 525), Shig. sonnei): 0.2 µg/mL (≈ 0.432 µM)
- MIC ([19]; table 2 (BB-S493), Kl. pneumoniae A9678): 1.6 µg/mL (≈ 3.46 µM)
- MIC ([19]; table 2 (BB-S493), Kl. pneumoniae A9867): 0.8 µg/mL (≈ 1.73 µM)
- MIC ([19]; table 2 (BB-S493), Kl. pneumoniae A9977): 0.4 µg/mL (≈ 0.865 µM)
- MIC ([19]; table 2 (BB-S493), Kl. pneumoniae A15130): 0.4 µg/mL (≈ 0.865 µM)
- MIC ([19]; table 4 (BB-S 525), Kl. pneumoniae, 1st line): 3.1 µg/mL (≈ 6.7 µM)
- MIC ([19]; table 4 (BB-S 525), Kl. pneumoniae, 2nd line): 0.2 µg/mL (≈ 0.432 µM)
- MIC ([19]; table 4 (BB-S 525), Kl. pneumoniae, 3rd line): 0.8 µg/mL (≈ 1.73 µM)
- MIC ([19]; table 4 (BB-S 525), Kl. pnuemoniae, 4th line): 0.8 µg/mL (≈ 1.73 µM)
- MIC ([20]; table 2 (BB-S493), Sal. typhosa A9498): 0.1 µg/mL (≈ 0.216 µM)
- MIC ([20]; table 4 (BB-S 525), Sal. typhosa): 0.1 µg/mL (≈ 0.216 µM)
- MIC ([21]; table 2 (BB-S493), Sal. enteritidis A9531): 0.1 µg/mL (≈ 0.216 µM)
- MIC ([21]; table 4 (BB-S 525), Sal. enteritidis): 0.1 µg/mL (≈ 0.216 µM)
- MIC [22]: 1 µg/mL (≈ 2.16 µM)
- MIC [23]: 34 µg/mL (≈ 73.5 µM)
- MIC [24]: 0.2 µg/mL (≈ 0.432 µM)
- MIC [25]: 0.3 µg/mL (≈ 0.649 µM)
- MIC [26]: 0.7 µg/mL (≈ 1.51 µM)
